Results from ChEMBL document CHEMBL3045363, “Synthesis of 3-methylflavones and their antioxidant and antibacterial activities” (Med Chem Res, 2012).
≈ marks a conversion by molar mass, not a printed value.

What was measured:
Assay type in all cases: functional
[1] = system: Pseudomonas aeruginosa; assay: Antimicrobial activity against Pseudomonas aeruginosa at 1 ug/ul after 24 hr by agar diffusion method
[2] = system: Bacillus subtilis; assay: Antimicrobial activity against Bacillus subtilis at 1 ug/ul after 24 hr by agar diffusion method
[3] = system: Staphylococcus aureus; assay: Antimicrobial activity against Staphylococcus aureus at 1 ug/ul after 24 hr by agar diffusion method
[4] = system: Escherichia coli; assay: Antimicrobial activity against Escherichia coli at 1 ug/ul after 24 hr by agar diffusion method
[5] = Antioxidant activity assessed as DPPH scavenging activity after 20 min by spectrophotometry
[6] = system: Bacillus cereus; assay: Antimicrobial activity against Bacillus cereus at 1 ug/ul after 24 hr by agar diffusion method
[7] = system: Klebsiella pneumoniae; assay: Antimicrobial activity against Klebsiella pneumoniae at 1 ug/ul after 24 hr by agar diffusion method

Compound | growth inhibition (GI) [1] [%] | growth inhibition (GI) [2] [%] | growth inhibition (GI) [3] [%] | growth inhibition (GI) [4] [%] | IC50 [5] [µg/mL] | growth inhibition (GI) [6] [%] | growth inhibition (GI) [7] [%]
Cc1c(-c2ccccc2F)oc2ccccc2c1=O | 47 | 26 | 55 | 47 | 208.3 (≈ 819 µM) | 60 | 52
Cc1cccc(-c2oc3ccccc3c(=O)c2C)c1 | 56 | 69 | 76 | 50 | 250 (≈ 999 µM) | 80 | 70
COc1ccccc1-c1oc2ccccc2c(=O)c1C | 45 | 59 | 61 | 52 | 142.86 (≈ 536 µM) | 51 | 62
COc1cccc(-c2oc3ccccc3c(=O)c2C)c1 | 59 | 74 | 43 | 50 | 156.25 (≈ 587 µM) | 65 | 40
Cc1c(-c2ccccc2O)oc2ccccc2c1=O | 43 | 83 | 70 | 38 | 79.37 (≈ 315 µM) | 50 | 70
Cc1c(-c2ccc(N(C)C)cc2)oc2ccccc2c1=O | 46 | 55 | 58 | 51 | 104.16 (≈ 373 µM) | 50 | 50
Cc1ccc(-c2oc3ccccc3c(=O)c2C)cc1 | 43 | 38 | 60 | 42 | 102.04 (≈ 408 µM) | 62 | 60
Cc1c(-c2ccc(N(C)C)cc2)oc2cc(O)ccc2c1=O | 51 | 50 | 55 | 29 | 58.82 (≈ 199 µM) | 57 | 50
Cc1ccccc1-c1oc2ccccc2c(=O)c1C | 52 | 49 | 53 | 40 | 156.25 (≈ 624 µM) | 50 | 40
Cc1c(-c2ccccc2Cl)oc2ccccc2c1=O | 44 | 25 | 57 | 51 | 192.3 (≈ 710 µM) | 60 | 59
COc1ccc(-c2oc3ccccc3c(=O)c2C)cc1 | 46 | 46 | 66 | 41 | 100 (≈ 376 µM) | 68 | 60
Cc1c(-c2ccc(O)cc2)oc2ccccc2c1=O | 37 | 56 | 74 | 47 | 104 (≈ 412 µM) | 81 | 80
COc1ccc2c(=O)c(C)c(-c3ccc(Cl)cc3)oc2c1 | 28 | 46 | 65 | 28 | 80.64 (≈ 268 µM) | 90 | 87
Cc1c(-c2ccc([N+](=O)[O-])cc2)oc2ccccc2c1=O | 57 | 60 | 77 | 31 | 131.57 (≈ 468 µM) | 89 | 85
Cc1c(-c2ccccc2Br)oc2ccccc2c1=O | 42 | 39 | 81 | 34 | 70.42 (≈ 223 µM) | 80 | 78
Cc1c(-c2ccc(Cl)cc2)oc2ccccc2c1=O | 47 | 68 | 74 | 33 | 98.04 (≈ 362 µM) | 85 | 81
Cc1c(-c2ccc(F)cc2)oc2ccccc2c1=O | 48 | 81 | 73 | 31 | 113.64 (≈ 447 µM) | 75 | 70
Cc1c(-c2ccc(Br)cc2)oc2ccccc2c1=O | 51 | 82 | 58 | 27 | 111.11 (≈ 353 µM) | 62 | 72
COc1ccc2c(=O)c(C)c(-c3ccccc3)oc2c1 | 51 | 63 | 59 | 34 | 200 (≈ 751 µM) | 50 | 41
Cc1c(-c2ccccc2)oc2ccccc2c1=O [3-METHYL-2-PHENYL-4H-CHROMEN-4-ONE] | 48 | 44 | 47 | 41 | 106.38 (≈ 450 µM) | 80 | 75
O=C1O[C@H]([C@@H](O)CO)C(O)=C1O [ASCORBIC ACID] |  |  |  |  | 17.6 (≈ 99.9 µM) |  | 
